Assays:
MOLM-13 cells = experiment: MOLM-13 Cellular Assay; assay type: cell-based; conditions: Homo sapiens, MOLM-13, 72 h, read-out: MOLM-13 Cellular Assay EC50 (nM)
Method: MOLM-13 cells were obtained from DSMZ and were maintained in RPMI 1640+Glutamax+25 mM HEPES (Invitrogen, catalog number 72400) supplemented with 10% heat inactivated fetal bovine serum (FBS; Invitrogen, catalog number 16140). The day prior to assay set-up, cells were pelleted, resuspended in fresh media, counted, and cells were plated at 0.4×10^6 cell/mL in a T150 flask. On the day of the assay, cells were pelleted, resuspend in fresh media, counted and seeded at 5,000 cells/well in white opaque 96-well tissue culture treated microplates (Perkin Elmer, catalog number 6005680). Cells were exposed to different concentrations of test compounds at 37° C., 5% CO2 for 72 hours immediately after seeding. Cell viability was acquired on a Perkin Elmer Envision 2104 multilabel reader using the CellTiter-Glo assay (Promega) according to the manufacturer's instructions.

human DHODH = human DHODH (Homo sapiens, UniProt Q02127); experiment: biochemical
Method: To detect DHODH enzyme activities, dichloroindophenol (DCIP) is added as the final electron acceptor in the assay. DCIP can accept electrons from the reduced coenzyme Q generated in the assay, or from dihydroorotate (DHO) via flavin mononucleotide (FMN) by binding presumably to the ubiquinone pocket. […] The assay buffer contained […], pH 7.5, 150 mM NaCl, 0.5 mM EDTA, and 0.1% Triton X-100 in MilliQ water. Substrate consisting of 20 mM DHO, 5 mM CoQ6, and 1 mM DCIP in assay buffer, initiates the reaction. […] Absorbance measurements were obtained using the BMG Phera Star plate-reading spectrophotomer. Purified human DHODH was purchased from Proteros (cat. No. PR-0044). Chemicals were purchased from Sigma-Aldrich, Teknova, and Avanti Polar Lipids. Liquid handling was performed using Labcyte Echo and Formulatrix Tempest.

Chain of human DHODH (Q02127 whole entry): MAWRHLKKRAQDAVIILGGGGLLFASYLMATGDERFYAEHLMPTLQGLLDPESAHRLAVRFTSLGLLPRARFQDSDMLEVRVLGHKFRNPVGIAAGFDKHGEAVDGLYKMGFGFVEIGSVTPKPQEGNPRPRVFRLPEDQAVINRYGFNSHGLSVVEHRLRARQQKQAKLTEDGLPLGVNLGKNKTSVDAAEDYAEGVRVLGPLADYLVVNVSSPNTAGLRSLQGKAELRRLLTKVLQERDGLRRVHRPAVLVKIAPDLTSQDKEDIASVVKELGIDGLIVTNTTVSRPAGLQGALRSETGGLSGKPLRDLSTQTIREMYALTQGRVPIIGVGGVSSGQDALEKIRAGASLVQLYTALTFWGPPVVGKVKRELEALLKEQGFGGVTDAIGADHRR

SMILES | EC50 (MOLM-13 cells) [nM] | EC50 (human DHODH) [nM]
Cc1n[nH]c(Cl)c1NC(=O)c1cc(F)c(NC(=O)N2CCC[C@@H]2CO)cc1O[C@@H](C)C(F)(F)F [Example 37, (R)-N-(4-((5-Chloro-3-methyl-1H-pyrazol-4-yl)carbamoyl)-2-fluoro-5-(((S)-1,1,1-trifluoropropan-2-yl)oxy)phenyl)-2-(hydroxymethyl)pyrrolidine-1-carboxamide] | 11 | 0.7
COc1nccc(C)c1NC(=O)c1cc(F)c(NC(=O)N2CCC[C@@H]2CO)cc1O[C@@H](C)C(F)(F)F [Example 38, (R)-N-(2-Fluoro-4-((2-methoxy-4-methylpyridin-3-yl)carbamoyl)-5-(((S)-1,1,1-trifluoropropan-2-yl)oxy)phenyl)-2-(hydroxymethyl)pyrrolidine-1-carboxamide] | 16 | 0.17
CCN(CC(F)F)C(=O)Nc1cc(O[C@@H](C)C(F)(F)F)c(C(=O)Nc2c(C)ccnc2Cl)cc1F [Example 41, (S)-N-(2-Chloro-4-methylpyridin-3-yl)-4-(3-(2,2-difluoroethyl)-3-ethylureido)-5-fluoro-2-((1,1,1-trifluoropropan-2-yl)oxy)benzamide] | 37 | 17
CCN(CC(F)F)C(=O)Nc1cc(O[C@@H](C)C(F)(F)F)c(C(=O)Nc2c(C)n[nH]c2Cl)cc1F [Example 42, (S)-N-(5-Chloro-3-methyl-1H-pyrazol-4-yl)-4-(3-(2,2-difluoroethyl)-3-ethylureido)-5-fluoro-2-((1,1,1-trifluoropropan-2-yl)oxy)benzamide] | 11 | 3
CCN(CC(F)F)C(=O)Nc1cc(O[C@@H](C)C(F)(F)F)c(C(=O)Nc2c(C)cnc(OC)c2C)cc1F [Example 45, (S)-4-(3-(2,2-Difluoroethyl)-3-ethylureido)-5-fluoro-N-(2-methoxy-3,5-dimethylpyridin-4-yl)-2-((1,1,1-trifluoropropan-2-yl)oxy)benzamide] | 63 | 27

The next lines start with the values.

EC50 (MOLM-13 cells) [nM] | EC50 (human DHODH) [nM] | SMILES
3.5 | 2.6 | COc1ncc(C)c(NC(=O)c2cc(F)c(NC(=O)N3CCC[C@@H]3CO)cc2O[C@@H](C)C(F)(F)F)c1Cl [Example 39, (R)-N-(4-((3-Chloro-2-methoxy-5-methylpyridin-4-yl)carbamoyl)-2-fluoro-5-(((S)-1,1,1-trifluoropropan-2-yl)oxy)phenyl)-2-(hydroxymethyl)pyrrolidine-1-carboxamide]
25 | 3.6 | COc1ncc(C)c(NC(=O)c2cc(F)c(NC(=O)N3CCC[C@@H]3CO)cc2O[C@@H](C)C(F)(F)F)c1C [Example 40, (R)-N-(2-Fluoro-4-((2-methoxy-3,5-dimethylpyridin-4-yl)carbamoyl)-5-(((S)-1,1,1-trifluoropropan-2-yl)oxy)phenyl)-2-(hydroxymethyl)pyrrolidine-1-carboxamide]
30 | 24 | CCN(CC(F)F)C(=O)Nc1cc(O[C@@H](C)C(F)(F)F)c(C(=O)Nc2c(C)ccnc2OC)cc1F [Example 43, (S)-4-(3-(2,2-difluoroethyl)-3-ethylureido)-5-fluoro-N-(2-methoxy-4-methylpyridin-3-yl)-2-((1,1,1-trifluoropropan-2-yl)oxy)benzamide]
9.6 | 7 | CCN(CC(F)F)C(=O)Nc1cc(O[C@@H](C)C(F)(F)F)c(C(=O)Nc2c(C)cnc(OC)c2Cl)cc1F [Example 44, (S)-N-(3-Chloro-2-methoxy-5-methylpyridin-4-yl)-4-(3-(2,2-difluoroethyl)-3-ethylureido)-5-fluoro-2-((1,1,1-trifluoropropan-2-yl)oxy)benzamide]

From US20220298107A1, “SUBSTITUTED UREA DIHYDROOROTATE DEHYDROGENASE INHIBITORS” (Janssen Biotech, Inc., priority 2019, published 2022)
